Reference: patent US8546608B2, “Proteasome inhibitors and methods of using the same” (Cephalon, Inc., priority 2003, dated 2013)

Legend:
[1] = target: T1, 20S Human Erythrocyte Proteasome (HEP) (Homo sapiens, UniProt P20618+P28074); assay: Chymotrypsin-like activity of 20S Human Erythrocyte Proteasome (HEP), IC50 determination; type: biochemical; conditions: assay of Example C, inhibition of HEP
T1 construct: 20S Human Erythrocyte Proteasome (HEP), purchased from Immatics Biotechnologies Inc; purchased Immatics Biotechnologies Inc., Tübingen, Germany; host or cells: human erythrocytes (natural source)
Procedure, shortened: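 20S proteasome at 0.2 μg/mL (about 0.6 nM catalytic sites) in 20 mM Tris with 0.04% SDS, preincubated 15 min at 37° C with inhibitor before Suc-LLVY-AMC (100 μM final). AMC fluorescence read in the linear range; triplicates, IC50 from concentration series.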

[2] = target: T2, proteasome in Molt-4 cells (human leukemia) (Homo sapiens, UniProt P20618+P28074); type: cell-based; conditions: assay of Example E, inhibition of MOLT4; read-out: MOLT4 (EC50)
T2 sequence (P28074 60-263): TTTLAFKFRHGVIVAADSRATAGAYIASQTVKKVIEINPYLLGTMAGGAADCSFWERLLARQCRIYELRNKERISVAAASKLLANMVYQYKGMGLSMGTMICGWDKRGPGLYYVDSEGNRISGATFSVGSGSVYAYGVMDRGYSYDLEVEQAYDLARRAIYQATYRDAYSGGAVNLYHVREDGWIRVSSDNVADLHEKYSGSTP
T2 sequence (P20618 29-241): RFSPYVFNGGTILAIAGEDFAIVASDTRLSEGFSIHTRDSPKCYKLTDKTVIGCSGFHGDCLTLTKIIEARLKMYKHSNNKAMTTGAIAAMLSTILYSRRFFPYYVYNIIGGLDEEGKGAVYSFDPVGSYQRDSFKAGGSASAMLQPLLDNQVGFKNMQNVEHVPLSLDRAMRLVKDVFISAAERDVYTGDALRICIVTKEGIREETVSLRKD
Procedure, shortened: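 Intact Molt-4 cells (6×10^6 cells/mL) in HEPES-buffered saline were preincubated with inhibitor 15 min at 37 °C, then given cell-permeable MeOSuc-FLF-AFC at 25 μM final.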

IC50 [1] | EC50 [2] | Compound
< 0.01 µM | 2 to 10 µM | CC(C)C[C@H](NC(=O)[C@H](CCCNC(=N)N[N+](=O)[O-])NC(=O)CCCc1cccs1)B(O)O [D.7.19, Boronic acid, [(1R)-1-[[(2S)-5-[[imino(nitroamino)methyl]amino]-2-[[4-(thiophen-2-yl)butanoyl]amino]-1-oxopentyl]amino]-3-methylbutyl]]
< 0.01 µM | 2 to 10 µM | CC(C)C[C@H](NC(=O)[C@H](CCCNC(=N)N[N+](=O)[O-])NC(=O)CCCCc1ccc(F)cc1)B(O)O [D.7.20, Boronic acid, [(1R)-1-[[(2S)-5-[[imino(nitroamino)methyl]amino]-2-[[5-(4-fluorophenyl)pentanoyl]amino]-1-oxopentyl]amino]-3-methylbutyl]]
< 0.01 µM | 2 to 10 µM | CCCCC(C)(C)C(=O)N[C@@H](CCCNC(=N)N[N+](=O)[O-])C(=O)N[C@@H](CC(C)C)B(O)O [D.7.21, Boronic acid, [(1R)-1-[[(2S)-5-[[imino(nitroamino)methyl]amino]-2-[(2,2-dimethylhexanoyl)amino]-1-oxopentyl]amino]-3-methylbutyl]]
< 0.01 µM | > 10 µM | CC(C)C[C@H](NC(=O)[C@H](CCCNC(=N)N[N+](=O)[O-])NC(=O)/C=C/c1cccs1)B(O)O [D.7.23, Boronic acid, [(1R)-1-[[(2S)-5-[[imino(nitroamino)methyl]amino]-2-[[3-(thiophen-2-yl)propenoyl]amino]-1-oxopentyl]amino]-3-methylbutyl]]
< 0.01 µM | 0.2 to 2 µM | CC(C)C[C@H](NC(=O)[C@H](CCCNC(=N)N[N+](=O)[O-])NC(=O)CCCCC1CCCCC1)B(O)O [D.7.24, Boronic acid, [(1R)-1-[[(2S)-5-[[imino(nitroamino)methyl]amino]-2-[(5-cyclohexylpentanoyl)amino]-1-oxopentyl]amino]-3-methylbutyl]]
< 0.01 µM | 2 to 10 µM | CC(C)=CCC[C@@H](C)CC(=O)N[C@@H](CCCNC(=N)N[N+](=O)[O-])C(=O)N[C@@H](CC(C)C)B(O)O [D.7.25, Boronic acid, [(1R)-1-[[(2S)-5-[[imino(nitroamino)methyl]amino]-2-[((3R)-3,7-dimethyloct-6-enoyl)amino]-1-oxopentyl]amino]-3-methylbutyl]]
< 0.01 µM | 2 to 10 µM | Cc1ccc(CSCCC(=O)N[C@@H](CCCNC(=N)N[N+](=O)[O-])C(=O)N[C@@H](CC(C)C)B(O)O)cc1 [D.7.26, Boronic acid, [(1R)-1-[[(2S)-5-[[imino(nitroamino)methyl]amino]-2-[[3-[(4-methylbenzyl)sulfanyl]propanoyl]amino]-1-oxopentyl]amino]-3-methylbutyl]]
< 0.01 µM | 2 to 10 µM | CC(C)C[C@H](NC(=O)[C@H](CCCNC(=N)N[N+](=O)[O-])NC(=O)c1ccc(-n2cccc2)cc1)B(O)O [D.7.27, Boronic acid, [(1R)-1-[[(2S)-5-[[imino(nitroamino)methyl]amino]-2-[(4-pyrrol-1-ylbenzoyl)amino]-1-oxopentyl]amino]-3-methylbutyl]]
< 0.01 µM | > 10 µM | COc1ccc(F)cc1C(=O)N[C@@H](CCCNC(=N)N[N+](=O)[O-])C(=O)N[C@@H](CC(C)C)B(O)O [D.7.28, Boronic acid, [(1R)-1-[[(2S)-5-[[imino(nitroamino)methyl]amino]-2-[(5-fluoro-2-methoxybenzoyl)amino]-1-oxopentyl]amino]-3-methylbutyl]]
< 0.1 µM | > 10 µM | CC(C)C[C@H](NC(=O)[C@H](CCCNC(=N)N[N+](=O)[O-])NC(=O)C1CC1)B(O)O [D.7.30, Boronic acid, [(1R)-1-[[(2S)-5-[[imino(nitroamino)methyl]amino]-2-[(cyclopropanecarbonyl)amino]-1-oxopentyl]amino]-3-methylbutyl]]
< 0.01 µM | > 10 µM | CCOc1ccc(C(=O)N[C@@H](CCCNC(=N)N[N+](=O)[O-])C(=O)N[C@@H](CC(C)C)B(O)O)cc1 [D.7.31, Boronic acid, [(1R)-1-[[(2S)-5-[[imino(nitroamino)methyl]amino]-2-[(4-ethoxybenzoyl)amino]-1-oxopentyl]amino]-3-methylbutyl]]
< 0.01 µM | 2 to 10 µM | CC(C)C[C@H](NC(=O)[C@H](CCCNC(=N)N[N+](=O)[O-])NC(=O)/C=C/c1ccc(Br)cc1)B(O)O [D.7.32, Boronic acid, [(1R)-1-[[(2S)-5-[[imino(nitroamino)methyl]amino]-2-[((E)-3-(4-bromophenyl)prop-2-enoyl)amino]-1-oxopentyl]amino]-3-methylbutyl]]
< 0.01 µM | 2 to 10 µM | COc1ccc2cc([C@H](C)C(=O)N[C@@H](CCCNC(=N)N[N+](=O)[O-])C(=O)N[C@@H](CC(C)C)B(O)O)ccc2c1 [D.7.33, Boronic acid, [(1R)-1-[[(2S)-5-[[imino(nitroamino)methyl]amino]-2-[[(2S)-2-(6-methoxynaphthalen-2-yl)-propanoyl]amino]-1-oxopentyl]amino]-3-methylbutyl]]
< 0.01 µM | > 10 µM | COc1ccc(C(=O)N[C@@H](CCCNC(=N)N[N+](=O)[O-])C(=O)N[C@@H](CC(C)C)B(O)O)cc1F [D.7.35, Boronic acid, [(1R)-1-[[(2S)-5-[[imino(nitroamino)methyl]amino]-2-[(3-fluoro-4-methoxybenzoyl)amino]-1-oxopentyl]amino]-3-methylbutyl]]
< 0.01 µM | 2 to 10 µM | CC(C)C[C@H](NC(=O)[C@H](CCCNC(=N)N[N+](=O)[O-])NC(=O)/C=C/c1ccc2ccccc2c1)B(O)O [D.7.36, Boronic acid, [(1R)-1-[[(2S)-5-[[imino(nitroamino)methyl]amino]-2-[[(E)-3-(naphthalen-2-yl)prop-2-enoyl]amino]-1-oxopentyl]amino]-3-methylbutyl]]
< 0.01 µM | > 10 µM | Cc1cc(C(=O)N[C@@H](CCCNC(=N)N[N+](=O)[O-])C(=O)N[C@@H](CC(C)C)B(O)O)ccc1F [D.7.37]
< 0.01 µM | 0.2 to 2 µM | CC(C)C[C@H](NC(=O)[C@H](CCCNC(=N)N[N+](=O)[O-])NC(=O)CCCNC(=O)OCC1c2ccccc2-c2ccccc21)B(O)O [D.7.38, Boronic acid, [(1R)-1-[[(2S)-5-[[imino(nitroamino)methyl]amino]-2-[[[[[(9H-fluoren-9-yl)methoxy]carbonyl]amino]butanoyl]amino]-1-oxopentyl]amino]-3-methylbutyl]]
< 0.01 µM | 2 to 10 µM | CC(C)C[C@H](NC(=O)[C@H](CCCNC(=N)N[N+](=O)[O-])NC(=O)c1ccc(Br)cc1)B(O)O [D.7.39, Boronic acid, [(1R)-1-[[(2S)-5-[[imino(nitroamino)methyl]amino]-2-[(4-bromobenzoyl)amino]-1-oxopentyl]amino]-3-methylbutyl]]
< 0.01 µM | < 0.2 µM | CCCCCCCCCCC(=O)N[C@@H](CCCNC(=N)N[N+](=O)[O-])C(=O)N[C@@H](CC(C)C)B(O)O [D.7.41, Boronic acid, [(1R)-1-[[(2S)-5-[[imino(nitroamino)methyl]amino]-2-[(undecanoyl)amino]-1-oxopentyl]amino]-3-methylbutyl]]
< 0.01 µM | 2 to 10 µM | CC(C)C[C@H](NC(=O)[C@H](CCCNC(=N)N[N+](=O)[O-])NC(=O)CCCCCCCCCCC#N)B(O)O [D.7.60, Boronic acid, [(1R)-1-[[(2S)-5-[[imino(nitroamino)methyl]amino]-2-[(11-cianoundecanoyl)amino]-1-oxopentyl]amino]-3-methylbutyl]]
< 0.01 µM | > 10 µM | CC(C)C[C@H](NC(=O)[C@H](CCCNC(=N)N[N+](=O)[O-])NC(=O)CCCCCCCCC#N)B(O)O [D.7.61, Boronic acid, [(1R)-1-[[(2S)-5-[[imino(nitroamino)methyl]amino]-2-[(9-cyanononanoyl)amino]-1-oxopentyl]amino]-3-methylbutyl]]
< 0.01 µM | < 0.2 µM | CCCCCCCCCC(=O)N[C@H](C(=O)N[C@@H](CC(C)C)B1O[C@@H]2C[C@@H]3C[C@@H](C3(C)C)[C@]2(C)O1)[C@@H](C)O [D.8, Decanamide, N-[(1S,2R)-1-[[[(1R)-1-[(3aS,4S,6S,7aR)-hexahydro-3a,5,5-trimethyl-4,6-methano-1,3,2-benzodioxaborol-2-yl]-3-methylbutyl]amino]carbonyl]-2-hydroxypropyl]-]
< 0.1 µM | < 0.2 µM | CC(C)C[C@H](NC(=O)[C@@H](NC(=O)c1cnccn1)[C@@H](C)O)B1O[C@@H]2C[C@@H]3C[C@@H](C3(C)C)[C@]2(C)O1 [D.8.4, 2-Pyrazinecarbossamide, N-[(1S,2R)-1-[[[(1R)-1-[(3aS,4S, 6S,7aR)-hexahydro-3a,5,5-trimethyl-4,6-methano-1,3,2-benzodioxaborol-2-yl]-3-melthylbutyl]amino]carbonyl]-2-hydroxypropyl]]
